How the values were obtained:
[1] = alamarBlue cytotoxicity (CC50), GT4a replicon cell line; settings: human
Protocol: (§1) The anti-HCV activity of STG-175 was conducted using a panel of luciferase reporter replicon cell lines including GT1a, GT1b, GT2a, GT3a and GT4a as we described previously. The GT1a subgenomic renilla luciferase reporter replicon H77 RLucP (7) was supplied by Dr. Delaney. The GT1b subgenomic firefly luciferase reporter replicon pFK-I389/NS3-3’ [29] was supplied by Dr. Bartenschlager. The GT1B subgenomic NS3, NS5A and NS5B mutants were created via homologous recombination using the In-Fusion HD Cloning kit (Clontech) as we described previously. The GT2a genomic luciferase reporter replicon Luc-Neo-JFH-1 was generated as previously. The plasmid pFK-Luc-JFH1 was supplied from Drs. […] The CellTiter-Fluor™ Cell Viability Assay is a non-lytic fluorescence assay, which measures the number of live cells. […] Luciferase activity was determined using the Luciferase Assay System (Promega) in a Berthold luminometer. […] Viable cells continuously convert resazurin to resorufin, increasing the overall fluorescence and color of the media surrounding cells.
(§2) Fig 2 Anti-HCV activities of STG-175 among GTs. […] Luciferase activity was determined using the Luciferase Assay System in a Berthold luminometer. […] Data are expressed as mean of relative light units and calculated EC50s are presented. […]

[2] = alamarBlue cytotoxicity (CC50), GT1b replicon cell line; settings: human
Protocol: as §1, §2

[3] = system: IL-2 promoter activation in Jurkat T-cell line; test: In vitro assay for immunosuppression: IL-2 promoter activation in engineered Jurkat T-cell line (betagalactosidase); type: cell-based
Protocol: IL-2 promoter activation upon T-cell stimulation was determined using an engineered Jurkat T-cell line, which expresses betagalactosidase when exposed to chemical non-specific factors like […] (PMA) and phytohematogglutinin (PHA) as described previously. DMSO or STG-175 were added together with PMA (10 ng/mL) to 1 million of Jurkat cells (triplicates). Betagalactosidase activity in cell lysates was quantified by fluorescence (460 nm) after 24 h.
Fig 1 Anti-PPIase and immunosuppressive activities of STG-175. A. Structures of cyclophilin inhibitors. Inhibition of CypA (B) and CypD (C) isomerase activities were assessed using the α-chymotrypsin-coupled assay. Each test compound was prepared at 10 concentrations (0.05–1000 nM). All solutions were equilibrated, and reactions conducted at 5°C. Reactions were initiated by mixing 95 μL reaction mix with 5 μL of the peptide to be cleaved and measuring OD405 nm at 6-sec intervals for 6 min. Data were fitted with Graphpad Prism 6.0 to obtain first-order rate constants. Enzyme catalyzed rate constants were calculated by subtracting the rate constant from uncatalyzed reactions (no CypA/D), and catalytic rate constants plotted as a function of inhibitor concentration to obtain IC50s. […] D. IL-2 promoter activation upon T-cell stimulation was determined using an engineered Jurkat T-cell line, which expresses betagalactosidase. Jurkat cells (1 million) were activated with PMA (10 ng/mL). […] The Y-axis values are expressed as percentage of activity. Data expressed as EC50s are representative of two independent experiments.
The formation of this trimolecular complex inhibits T cell proliferation by blocking the signaling pathway leading to IL-2 production upon T-cell stimulation. The immunosuppressive activity of STG-175 was evaluated by inhibition of the IL-2 production in Jurkat cells.

In the case of CC=CCC(C)C(O)C1C(=O)NC(CC)C(=O)N(C)C(CSCCCCO)C(=O)N(C)C(CC(C)(C)O)C(=O)NC(C(C)C)C(=O)N(C)C(CC(C)C)C(=O)NC(C)C(=O)NC(C)C(=O)N(C)C(CC(C)C)C(=O)N(C)C(CC(C)C)C(=O)N(C)C(C(C)C)C(=O)N1C (stereo not shown) [STG-175], the CC50 at 72 h [1] is reported as > 10 µM, the CC50 at 72 h [2] is reported as > 10 µM and the IC50 ([3]; Homo sapiens, Jurkat, 24 h, read-out: IC50, inhibition of IL-2 production (immunosuppressive activity)) is reported as 0.159 µM. For the same compound, the “times less immunosuppressive activity than CsA” value ([3]; Jurkat IL-2) was “approximately 1000 times”.

— publication PMC4841536, “Characterization of the Anti-HCV Activities of the New Cyclophilin Inhibitor STG-175” (PLoS ONE, 2016)
